According to patent US10173999B2, “Cyclic amine derivative and pharmaceutical use thereof” (Toray Industries, Inc., priority 2015, dated 2019):
Structures can show the parent of a compound that is named as a salt. One block for each compound: values may come before it.

Assays:
[1] = Stability test in human liver microsomes; format: in vitro ADME; conditions: pH 7.4; human liver microsomes 0.5 mg/mL, test compound 2 μmol/L, 37° C., 0-30 min; read-out: Hepatic intrinsic clearance, Human
Description: (§1) Experiment was performed using the compound of Example 11, Comparative Example 1 or Comparative Example 6 as a test compound and human liver microsomes (from Xenotech), monkey liver microsomes (from Xenotech), dog liver microsomes (from Xenotech) or mouse liver microsomes (from Xenotech) as the liver microsomes.
(§2) The reagents to be used in the stability test in liver microsomes were prepared as follows. A D-glucose 6-phosphate disodium salt (hereinafter referred to as G6P) was dissolved with distilled water to prepare an aqueous solution of G6P (100 mmol/L). Glucose 6-phosphate dehydrogenase (1000 units) from Yeast (hereinafter referred to as G6PDH) was dissolved with distilled water (5 mL) to prepare an aqueous solution of G6PDH (200 units/mL). MgCl2 was dissolved with distilled water to prepare an aqueous solution of MgCl2 (100 mmol/L). […]
(§3) With respect to the chromatogram of each well obtained by LC/MS analysis or LC/MS/MS analysis, the test compound residual ratio (%) at each reaction time t (min) was calculated based on the peak area at the reaction time of 0 minute as 100%. […]

[2] = system: Cr1: CD (SD) rats; test: Evaluation of safety in rat, two-week oral administration test; format: in vivo; conditions: oral
Description: As a test compound, the compound of Example 11 or Comparative Example 2 was used. The compound of Example 11 or Comparative Example 2 was administered orally to Cr1: CD (SD) rats (7 weeks old, female and male; from Charles River Laboratories, Inc.), for 2 weeks. Clinical observation, body weight measurement, food intake measurement, ophthalmologic examination (the compound of Example 11, alone), hematological examination, blood chemistry examination, urinalysis, bone marrow examination, pathological anatomical examination, organ weight measurement, histopathological examination and immunotoxicity test were carried out. In addition, toxicokinetics (TK) measurement was carried out on Day 1 and Day 14 after administration. It was confirmed that each test compound was exposed. The administration dose of a test compound was specified as 0, 250, 500, 1000 mg/kg/day and administration volume was specified as 10 mL/kg. As an administration solvent, phosphate-buffered saline was used for the compound of Example 11 and distilled water was used for the compound of Comparative Example 2.

[3] = Stability test in dog liver microsomes; format: in vitro ADME; conditions: pH 7.4; dog liver microsomes 0.5 mg/mL, test compound 2 μmol/L, 37° C., 0-30 min; read-out: Hepatic intrinsic clearance, Dog
Description: as §1, §2, §3

SMILES: CN(C)C1CCN(C(=O)CCc2nccn2C)CC1 [Comparative Example 1, 1-(4-(dimethylamino)piperidin-1-yl)-3-(1-methyl-1H-imidazol-2-yl)propan-1-one hydrochloride]
- microsomal CLint at 2 μmol/L [1]: 1 µL/min/mg

SMILES: CN(C)C1CCN(C(=O)C[C@H](O)c2nccn2C)CC1 [Example 11, (S)-1-(4-(dimethylamino)piperidin-1-yl)-3-hydroxy-3-(1-methyl-1H-imidazol-2-yl)propan-1-one]
- no observed adverse effect level ([2]; 2 weeks): ≥ 1000 mg/kg/day
- findings in examination items ([2]; up to 1000 mg/kg/day for 2 weeks): abnormality was not observed

- microsomal CLint at 2 μmol/L [3]: 6 µL/min/mg
SMILES: CC(C)n1ccnc1CCC(=O)N1CCC(N(C)C)CC1 [Comparative Example 6, 1-(4-(dimethylamino)piperidin-1-yl)-3-(1-isopropyl-1H-imidazol-2-yl)propan-1-one hydrochloride]
